Experimental data as given in patent EP1200093B1, “USE OF 2-AMINO-4-(4-FLUORONAPHTH-1-YL)-6-ISOPROPYLPYRIMIDINE IN THE TREATMENT OF GI DISORDERS” (priority 1999, dated 2001).
“And” between values parts separate entries of the source, which are not always exact repeats. Equal values may be shown once.

Legend:
5-HT2B [1] = biological target: T1, 5-HT2B (Homo sapiens, UniProt P41595); conditions: human receptor, comparison data; cited from earlier work
5-HT4 [2] = biological target: T2, 5-HT4 (Homo sapiens, UniProt Q13639); conditions: human receptor, comparison data; cited from earlier work
[3] = biological target: T3, 5-HT receptor in human colon longitudinal muscle (Homo sapiens, UniProt P41595); test: cell-based; type: cell-based
T3 construct: Longitudinal muscle strips (2mm wide by 20mm long) were then cut from the tissue between the taenia coli; from tissue; host or cells: human colon longitudinal muscle strips, electrically stimulated

5-HT2B [4] = biological target: T1, 5-HT2B; conditions: * responses to 5-HT in human isolated tissues; cited from earlier work
5-HT4 [5] = biological target: T2, 5-HT4; conditions: * responses to 5-HT in human isolated tissues; cited from earlier work
5-HT2C = biological target: T4, 5-HT2C (Homo sapiens, UniProt P28335); conditions: * responses to 5-HT in human isolated tissues; cited from earlier work
T4 sequence (P28335 33-458): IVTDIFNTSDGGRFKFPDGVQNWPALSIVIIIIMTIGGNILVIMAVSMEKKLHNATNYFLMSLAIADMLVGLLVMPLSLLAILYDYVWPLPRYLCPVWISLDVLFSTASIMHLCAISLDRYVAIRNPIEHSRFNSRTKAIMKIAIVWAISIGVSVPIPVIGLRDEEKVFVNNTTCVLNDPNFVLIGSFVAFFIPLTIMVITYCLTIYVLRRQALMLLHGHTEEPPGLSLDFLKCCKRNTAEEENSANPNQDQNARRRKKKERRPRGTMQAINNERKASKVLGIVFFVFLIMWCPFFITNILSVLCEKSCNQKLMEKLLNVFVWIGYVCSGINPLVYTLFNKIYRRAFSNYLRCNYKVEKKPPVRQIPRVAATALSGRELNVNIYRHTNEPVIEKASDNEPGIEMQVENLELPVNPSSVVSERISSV

[6] = tested on: 5-HT receptor in human colon longitudinal muscle; test: cell-based; type: cell-based

T2 sequence (Q13639 whole entry): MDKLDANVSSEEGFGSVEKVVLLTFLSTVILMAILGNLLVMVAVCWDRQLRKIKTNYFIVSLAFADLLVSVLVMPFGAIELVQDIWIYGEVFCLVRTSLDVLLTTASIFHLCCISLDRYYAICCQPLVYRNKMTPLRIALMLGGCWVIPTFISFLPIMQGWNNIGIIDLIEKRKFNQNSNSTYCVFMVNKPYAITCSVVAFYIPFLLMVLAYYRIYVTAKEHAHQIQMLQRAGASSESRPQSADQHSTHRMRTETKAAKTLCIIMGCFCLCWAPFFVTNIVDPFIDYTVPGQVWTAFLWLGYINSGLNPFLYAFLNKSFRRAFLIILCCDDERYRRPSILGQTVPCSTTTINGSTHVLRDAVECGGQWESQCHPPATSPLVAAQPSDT
T3 sequence (P41595 whole entry): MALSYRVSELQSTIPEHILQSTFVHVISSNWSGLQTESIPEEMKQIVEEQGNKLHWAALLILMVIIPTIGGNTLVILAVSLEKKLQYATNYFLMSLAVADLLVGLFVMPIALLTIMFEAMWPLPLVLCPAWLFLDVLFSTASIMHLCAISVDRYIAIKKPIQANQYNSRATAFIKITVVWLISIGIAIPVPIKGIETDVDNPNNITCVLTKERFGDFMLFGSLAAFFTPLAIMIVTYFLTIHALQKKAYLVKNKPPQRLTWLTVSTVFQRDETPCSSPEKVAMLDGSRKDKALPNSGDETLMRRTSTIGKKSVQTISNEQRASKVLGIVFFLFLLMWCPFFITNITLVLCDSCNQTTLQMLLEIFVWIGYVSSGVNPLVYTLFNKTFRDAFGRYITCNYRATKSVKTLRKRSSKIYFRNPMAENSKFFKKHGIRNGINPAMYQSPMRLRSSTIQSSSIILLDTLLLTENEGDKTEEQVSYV
T1 sequence (P41595 whole entry): as above

Structure (SMILES) | mean pEC50, 5-HT2B (5-HT2B [1]) | mean pEC50, 5-HT4 (5-HT4 [2]) | EC50 [3] [nM] | mean pKB or pA2, 5-HT4 (5-HT4 [5]) | other results
COc1ccc2[nH]cc(CCN)c2c1 [5-MeOT] | 7.6 | 6.2 | 158 | – | –
CC(C)c1cc(-c2ccc(F)c3ccccc23)nc(N)n1 [RS127445, 2-amino-4-(4-fluoronaphth-1-yl)-6-isopropylpyrimidine] | – | – | – | – | Kb [3]: 0.316 nM and 0.355 nM; Schild analysis, slope of plot ([3]; antagonism of 5-HT, RS127445 0.3nM to 100nM): 0.93±0.17
Cc1cc2c(cc1Cl)N(C(=O)Nc1ccc(Oc3cccnc3C)nc1)CC2 [SB 242084] | – | – | – | – | Kb [3]: 501 nM
CC(N)Cc1c[nH]c2ccc(O)cc12 (stereo not drawn) [Alpha-Me-5-HT] | 8.4 | 6.2 | 3.16 | – | –
Cn1ccc2cc3c(cc21)CCN3C(=O)Nc1cccnc1 [SB 206553] | – | – | – | – | mean pKB or pA2, 5-HT2B (5-HT2B [4]): 9.0*; Affinity (pKB) at the 5-HT receptor in human colon longitudinal muscle ([3]; antagonism of 5-HT in electrically-stimulated strips, at least 3 donors (RS127445: n>4 donors)): 8.5±0.1
Cc1[nH]c2ccc(O)cc2c1CCN [2-Me-5-HT] | 6.7 | 6.0 | 100 | – | –
CSc1ccc2c(c1)C(N1CCN(C)CC1)Cc1ccccc1S2 (stereo not shown) [Methiothepin] | – | – | – | <6.0* | –
CC[C@@H](CO)NC(=O)[C@@H]1C=C2c3cccc4c3c(cn4C)C[C@H]2N(C)C1 [Methysergide] | – | – | – | <5.0* | mean pKB or pA2, 5-HT2C (5-HT2C): 8.9*
CN1[C@@H]2CC[C@H]1C[C@@H](OC(=O)C(CO)c1ccccc1)C2 (stereo partly shown) [atropine] | – | – | – | – | effect on electrically-induced contractile response [6]: inhibited
O=C(c1ccc(F)cc1)C1CCN(CCn2c(=O)[nH]c3ccccc3c2=O)CC1 [Ketanserin] | – | – | – | 4.7* | –
